Measurements reported in US20240299376A1, “METHOD OF TREATING A CONDITION USING A […] EFFECTIVE DOSE OF 1-(1-OXO-1,2-DIHYDROISOQUINOLIN-5-YL)-5-(TRIFLUOROMETHYL)-N-(2-(TRIFLUOROMETHYL)PYRIDIN-4-YL)-1H-PYRAZOLE-4-CARBOXAMIDE” (Janssen Pharmaceutica NV, priority 2021, published 2024).

How the values were obtained:
[1] = test system: human cytokine IL-10 in serum; experiment: Serum IL-10 (MSD assay) after a single dose in OCI-LY3 tumor-bearing NSG mice; assay type: in vivo
Method: (§1) NF-κB signaling regulates the secretion of multiple cytokines, including interleukin-10 (IL-10). MALT1 inhibition results in a decrease of IL-10 transcription and translation as well as secretion. Levels of the human cytokine IL-10 were measured in the serum of OCI-LY3 or OCI-LY10 ABC-DLBCL tumor bearing mice using a Mesoscale Discovery assay (MSD). 25 μL of mouse serum was transferred to an MSD plate (V-Plex Proinflammation Panel I (human) kit) and incubated together with 25 μL diluent 2 (MSD; R51BB-3) for 2 hours at RT followed by a 2-hour incubation with IL-10 antibody solution. Plates were read on a SECTOR imager. Serum human IL-10 levels were correlated to serum compound concentration.
Serum IL-10 levels are graphed as the mean+/−SD.
(§2) For PD, when tumors reached 550-750 mm^3 animals were assigned randomly into the treatment groups and treated as presented in Table 5. Dose volumes were adjusted to individual body weights at 10 mL/kg. For both PD studies, serum was collected at 2 and 12 hours post treatment from the retro-orbital sinus. At 24 hours post treatment, animals were bled via decapitation and tumors were excised, weighed, and divided for bioanalysis and ex vivo PD analysis. Blood was centrifuged at 10,000 rpm and serum divided for bioanalysis and PD analysis.

[2] = test system: human cytokine IL-10 in serum; experiment: Serum IL-10 (MSD assay) after a single dose in OCI-LY10 tumor-bearing NSG mice; assay type: in vivo
Method: as §1
Serum samples were collected at 2, 12, and 24 hours post dose and tumor samples were collected 24 hours post dose. Human IL-10 was measured in serum samples using a Mesoscale assay.
Serum IL-10 levels are graphed as the mean+/−standard deviation.
as §2

[3] = test system: OCI-Ly1 (no NF-κB mut); experiment: Anti-proliferative activity, DLBCL cell line panel; assay type: cell-based; details: Homo sapiens, OCI-Ly1, 192 h; antiproliferation after 8 days of treatment
Method: (§3) Four ABC-DLBCL cell lines with activating mutations in the canonical NFκB pathway were evaluated (OCI-LY3 (CARD11, MYD88 & A20 mutations), TMD8, HBL1, and OCI-LY10 (CD79B & MYD88 mutations)), which are generally sensitive to NF-κB pathway inhibition. None of the GCB-DLBCL cell lines harbor mutations in the NF-κB pathway. The GCB-DLBCL cell lines served as a negative control to exclude compounds with general cytotoxic effects.
(§4) At concentrations ≥20 μM general cytotoxicity was observed.

[4] = test system: OCT-Ly7 (no NF-κB mut); experiment: Anti-proliferative activity, DLBCL cell line panel; assay type: cell-based; details: 192 h; antiproliferation after 8 days of treatment
Method: as §3, §4

[5] = test system: SU-DHL4 (no NF-κB mut); experiment: Anti-proliferative activity, DLBCL cell line panel; assay type: cell-based; details: Homo sapiens, SU-DHL-4, 192 h; antiproliferation after 8 days of treatment
Method: as §3, §4

[6] = test system: TMD8 (CD79b/Myd88/A20 mut); experiment: Anti-proliferative activity, DLBCL cell line panel; assay type: cell-based; details: Homo sapiens, TMD8, 192 h; antiproliferation after 8 days of treatment
Method: as §3, §4

[7] = Single IV dose plasma PK; assay type: in vivo, dog
Method: Single intravenous (IV) dose PK was conducted in mice (two strains), rats, monkeys, and dogs at a dose of 1 mg/kg in 70% PEG400 (PEG400/water 70:30) by bolus injection. The time course for plasma sample was optimized to fully characterize the disposition profile in each species. PK analysis was by non-compartmental method.

[8] = male, plasma, Dog, beagle, 3M, 1 mg/kg IV in 70% PEG400, mean

O=C(Nc1ccnc(C(F)(F)F)c1)c1cnn(-c2cccc3c(=O)[nH]ccc23)c1C(F)(F)F [Compound A, 1-(1-oxo-1,2-dihydroisoquinolin-5-yl)-5-(trifluoromethyl)-N-[2-(trifluoromethyl)pyridin-4-yl]-1H-pyrazole-4-carboxamide]
inhibition or reduction of serum IL-10 ([1]; single dose 10 mg/kg, 12 hours post dose): intermediate inhibition or reduction | inhibition or reduction of serum IL-10 ([1]; single dose 30 mg/kg, 12 hours post dose): completely inhibited or reduced serum IL-10 | inhibition or reduction of serum IL-10 ([1]; single dose 100 mg/kg, 12 hours post dose): completely inhibited or reduced serum IL-10 | inhibition or reduction of serum IL-10 ([1]; single dose, 24 hours post dose): lost at 24 hours post dose | effect of adding precipitation inhibitor on exposure and PD ([2]; 100 mg/kg plus precipitation inhibitor PVP/VA64, 24 hours): increased exposures correlating to increased PD shutdown at 24 hours | inhibition or reduction of serum IL-10 ([2]; single oral dose 3 mg/kg, 12 hours post dose): intermediate inhibition or reduction | inhibition or reduction of serum IL-10 ([2]; single oral dose 10 mg/kg, 12 hours post dose): strong inhibition or reduction | inhibition or reduction of serum IL-10 ([2]; single oral dose 30 mg/kg, 12 hours post dose): completely inhibited or reduced serum IL-10 levels | inhibition or reduction of serum IL-10 ([2]; single oral dose 100 mg/kg, 12 hours post dose): completely inhibited or reduced serum IL-10 levels | inhibition or reduction of serum IL-10 ([2]; single oral dose, 24 hours post dose): rebounded at 24 hours post dose | IC50 [3]: > 10 µM | IC50 [4]: > 10 µM | IC50 [5]: 6 µM | IC50 [6]: 0.635 µM | CL as fraction of liver blood flow (LBF) ([7]; dog, LBF 30.9 mL/min/kg): 3.0% | AUC(0-inf) [7, 8]: 23100 ng·h/mL | C0 [7, 8]: 2070 ng/mL | clearance [7, 8]: 0.772 mL/min/kg | half-life [7, 8]: 16.9 h | Vd ([7]; male, plasma, Dog, beagle, 3M, 1 mg/kg IV in 70% PEG400, mean, read-out: Vdss): 1.01 L/kg
